Here are results for four compounds from patent US9073861B2, “Diphenylmethyl piperazine derivative and pharmaceutical composition using same” (AETAS PHARMA CO., LTD., priority 2011, dated 2015).

For one assay, the system named is normal rats. As to the kind of experiment: Hemodynamics before and after intravenous administration in anesthetized normal rats (left ventricular pressure catheter). The settings on record: 0.1 mg/kg/min for 10 min i.v.; for maximum +dP/dt after administration as compared to that by the comparative compound [A]: FIG. 7; for maximum −dP/dt after administration as compared to that by the comparative compound [A]: FIG. 8. The assay is classed as in vivo, Wistar male rats. The protocol: Wistar male rats were bred for a week and then anesthetized by inhalation of 3% isoflurane. A pressure sensor-tipped catheter (2F Millar) was inserted into the left ventricle from the right common carotid artery, and a polyethylene tube (SP10) for injection of the compounds of the present invention or physiological saline was inserted from the right femoral vein. After stabilizing hemodynamics for 10 minutes, the compound [2] of the present invention was administered from the polyethylene tube at 0.1 mg/kg/min for 10 min, and the cardiac rate, left ventricular pressure, maximum +dP/dt, and maximum −dP/dt were measured for 20 heart beats every minute. In the control group, only physiological saline, which is a solvent, was administered. It is noted that the injection rate of each solution was 16.6 μl per min.
The cardiac rate, maximum left ventricular pressure, maximum +dP/dt and maximum −dP/dt before administration of a drug were considered as 100%, and the values after administration were represented by values (% representation) relative to the values before administration. Using n=3 rats, experiments were carried out. Data are shown as mean and standard deviation. Consequently, cardiac rate before and after administration (the left side in FIG. 1) and changes in the maximum left ventricular pressure (the right side in FIG. 1) are shown in FIG. 1, and changes in the maximum +dP/dt (the left side in FIG. 2) and changes in the maximum −dP/dt (the right side in FIG. 2) are shown in FIG. 2.
(§1) Wistar male rats were bred for a week and then anesthetized by inhalation of 3% isoflurane. Experiments were carried out in the same manner as in Test Example 1, and the compound [3] of the present invention was administered as a test compound at 0.1 mg/kg/min for 10 min, and the cardiac rate, left ventricular pressure, maximum +dP/dt, and maximum −dP/dt were measured for 20 heart beats every minute. The maximum +dP/dt or the maximum −dP/dt before administration was considered as 100%, and the value after administration was represented by a value (% representation) relative to the value before administration. Data are shown as mean and standard deviation. Using n=3 rats, experiments were carried out.
as §1, with “[4]” for “[3]”
Wistar male rats were bred for a week and then anesthetized by inhalation of 3% isoflurane. Experiments were carried out in the same manner as in Test Example 1, and the comparison comparative compound [A] was administered as a test compound at 0.1 mg/kg/min for 10 min, and the cardiac rate, left ventricular pressure, maximum +dP/dt, and maximum −dP/dt were measured for 20 heart beats every minute. The maximum +dP/dt or the maximum −dP/dt before administration was considered as 100%, and the value after administration was represented by a value (% representation) relative to the value before administration. Data are shown as mean and standard deviation. Using n=3 rats, experiments were carried out.
From the results of the tests carried out in Test Examples 1, 3, 4 and 5, the maximum +dP/dt (FIG. 7) and the maximum −dP/dt (FIG. 8) after administration of the compound [2], and compound [3], and compound [4] of the present invention as well as the comparative compound [A] were compared and examined.

In assay [1] the test system is rats with obsolete myocardial infarction. The assay can be described thus: Effect on myocardial contraction and relaxation in rats with obsolete myocardial infarction (coronary ligation, one month after operation). It is filed as in vivo, Wistar male rats. The settings on record: 0.1 mg/kg/min for 10 min i.v., n=3. The source says: Wistar male rats were anesthetized by inhalation of 3% isoflurane. The chest was opened at the left third intercostal space and the pericardial membrane was incised. The left anterior descending coronary artery was completely ligated with silk string (6.0; Ethicon) in the infarction group, and then the chest was immediately closed. Following this procedure, the inserted endotracheal tube was removed, and rats were awakened and then returned to a breeding room.
One month after operation, rats were anesthetized and endotracheally intubated, a pressure sensor-tipped catheter (2F Millar) was inserted into the left ventricle from the right common carotid artery, and a polyethylene tube (SP10) for injection of physiological saline or the compounds of the present invention was inserted from the right femoral vein in the same manner as in Test Example 1. After stabilizing hemodynamics for 10 minutes, the compound [2] of the present invention was administered from the polyethylene tube at 0.1 mg/kg/min for 10 min, and the cardiac rate, left ventricular pressure, maximum +dP/dt, and maximum −dP/dt were measured for 20 heart beats every minute. In the control group, only physiological saline, which is a solvent, was administered. It is noted that the injection rate of each solution was 16.6 μl per min. Using n=3 rats, experiments were carried out.
The maximum +dP/dt or the maximum −dP/dt before administration was considered as 100%, and the value after administration was represented by a value (% representation) relative to the value before administration. Data are shown as mean and standard deviation.

Take `OC(CN1CCN(C(c2ccccc2)c2ccccc2)CC1)CN1CCC(O)(c2ccc(Cl)cc2)CC1` (centres unmarked) [comparative compound [A], 1-[4-(diphenylmethyl)piperazinyl]-3-[4-(4-chlorophenyl)-4-hydroxy-piperidinyl]-2-propanol, reference compound]: in the assay with normal rats (pre-administration = 100%, n=3), the “maximum +dP/dt (index of contractile function) after vs before administration” value was “tended to slightly increase after administration of the comparative compound [A], but significant changes were not observed” and the “maximum −dP/dt (index of relaxing function) after vs before administration” value was “tended to slightly increase after administration of the comparative compound [A], but significant changes were not observed”.
As to `OC(CN1CCN(C(c2ccccc2)c2ccccc2)CC1)CN1CCC(O)(c2ccccc2)CC1` (centres unmarked) [compound [2], 1-[4-(diphenylmethyl)piperazinyl]-3-(4-hydroxy-4-phenyl-piperidinyl)-2-propanol], in the assay with normal rats, the “maximum +dP/dt after administration as compared to that by the comparative compound [A]” value is on record as “significantly raised” and the “maximum −dP/dt after administration as compared to that by the comparative compound [A]” value is recorded as “significantly raised”. In addition, in the assay on normal rats (pre-administration = 100%, n=3), the “cardiac rate after administration relative to before administration” value was “not increased”, the “left ventricular pressure after administration relative to before administration” value is given as “significantly raised”, the “maximum +dP/dt (index of contractile function) after vs before administration” value was “significant increases” and the “maximum −dP/dt (index of relaxing function) after vs before administration” value is on record as “significant increases”. Also, in assay [1], the “cardiac rate after vs before administration” value is reported as “significant changes in the cardiac rate were not observed” and the “left ventricular pressure after vs before administration” value is “significantly increased”. In addition, in assay [1] (pre-administration = 100%), the “maximum +dP/dt after vs before administration” value was “significantly increased” and the “maximum −dP/dt after vs before administration” value is on record as “significantly increased”.
Consider `OC1(c2ccc(Cl)cc2)CCN(CCCN2CCN(C(c3ccccc3)c3ccccc3)CC2)CC1` [compound [3], 1-[4-(diphenylmethyl)piperazinyl]-3-[4-(4-chlorophenyl)-4-hydroxy-piperidinyl]propane], for which, in the assay on normal rats, the “maximum +dP/dt after administration as compared to that by the comparative compound [A]” value was “significantly raised” and the “maximum −dP/dt after administration as compared to that by the comparative compound [A]” value is “significantly raised”. Also, in the assay on normal rats (pre-administration = 100%, n=3), the “maximum +dP/dt (index of contractile function) after vs before administration” value is recorded as “significantly increased” and the “maximum −dP/dt (index of relaxing function) after vs before administration” value is given as “significantly increased”.
Consider `Cc1ccc(C2(O)CCN(CC(O)CN3CCN(C(c4ccccc4)c4ccccc4)CC3)CC2)cc1` (centres unmarked) [compound [4], 1-[4-(diphenylmethyl)piperazinyl]-3-[4-hydroxy-4-(4-methylphenyl)-piperidinyl]-2-propanol], for which, in the assay with normal rats, the “maximum +dP/dt after administration as compared to that by the comparative compound [A]” value is listed as “significantly raised” and the “maximum −dP/dt after administration as compared to that by the comparative compound [A]” value is “significantly raised”. Besides, in the assay on normal rats (pre-administration = 100%, n=3), the “maximum +dP/dt (index of contractile function) after vs before administration” value was “significantly increased” and the “maximum −dP/dt (index of relaxing function) after vs before administration” value was “significantly increased”.
